Measurements: patent publication US20180030080A1, “Phosphoramidate nucleoside prodrug for treating viral diseases and cancer, processes for their preparation and their use” (ASAVI, LLC, priority 2016, published 2018)
Read-outs that look alike come from different tables or passages of the source.

Tests used:
[1] = tested on: HCV replicon; details: cited from earlier work
[2] = tested on: HBV; assay: Anti-HBV activity in the AD-38 cell line using real-time quantitative PCR; format: cell-based; details: against HBV; for EC50: AD-38 cells, 4 days, read-out: EC50; for inhibition, %: concentration not given
Protocol: Anti-HBV activity of prodrugs of general formula 1 determination in the AD-38 cell line using a real-time quanitative PCR. a) Cell cultures. HepG2 AD38 cell line, harboring an integrated over-the-length HBV genomic DNA (Lander S, et. al, Antimicrobal Agents and Chemotherapy, 1997, pg. 1715-1720) were provided by Dr. C. Seeger, Fox Chase Cancer Center, Philadelphia, Pa.). Cells were grown in complete media (DMEM/F12 with 2 mM L-Glutamine (Thermo Scientific, Cat #11320033), 10% Fetal Bovine Serum (ThermoFisher Scientific, Cat#), 1% Antibiotic-antimitotic solution (ThermoFisher Scientific, Cat#15240096), and 0.3 μg/ml tetracyclin (Sigma, Cat # T7660-5G). Cells were plated onto Corning Biocoat 96-well plates (Corning, Cat #356407) in 225 ul of complete media (without teracyclin), 20000 cells/well. The prodrugs of general formula 1 were dissolved first in DMSO (Sigma cat. D2650), then in DMEM/F12 and 9 serial 3× dilutions were prepared and added to cells in 22.5 μl. The final prodrugs concentrations ranged from 10 μM to 1 nM. Cells grown in the presence of tetracyclin were used as a positive control, as HBV replication in this cell line is turned off by thetracyclin. Cell plates were incubated for 4 days at 37 C, 5% CO2. b) HBV DNA isolation. After 4 days, viral DNA was isolated from culture supernatants using PureLink® Pro 96 Genomic DNA Purification Kit (ThermoFisher Scientific, Cat # K183104A), according to manufacturer's recommendations. Eluted DNA samples were stored at −20 C. c) Quantitative real-time PCR (qPCR). PCR was performed on the CFX96™ Real-Time System (Bio-Rad, Hercules, Calif.) using AmpliTaq Gold® DNA Polymerase (Applied Biosystems®).
Ct values (cycle threshold) were obtained for each prodrug sample and normalized to untreated cells, according to formula E=(1/(1+100%))̂(Ct[studied prodrug sample]−Ct[K-]), where E is a normalized expression of studied gene, Ct[K-] and Ct[studied prodrug sample] are Ct values of untreated cells and studied prodrug sample. Inhibition curves were obtained and EC50 values were calculated using the Graph Prizm software (Table 3).

[3] = tested on: HepG2 AD38 cell line; assay: Cytotoxicity (viability, CC50) reported with the anti-HBV test; format: cell-based; details: for viability, %: concentration not given
[4] = tested on: HCV replicon gT3a; assay: HCV replicon assay, genotype gT3a; format: cell-based; details: Hepatitis C virus, mean
Protocol: (§1) Anti-HCV activity (EC50) and cytotoxicity (CC50) of prodrugs of general formula 1. The HCV replicon assay was used to determine the antiviral activity of chemotherapeutic agents of general formula 1 (test compounds). Sovaldi (PSI-7977) was used as the reference drug. The test cell line used in the HCV Replicon Assay was the human hepatoma cell line Huh7 incorporating the HCV replicons synthesized by an outside vendor. 96-well plates were seeded with cells at a density of 7.5×10^3 cells per well in 50 μl of assay media. The compound stock solution was made up freshly in an assay medium (DMEM 1×, Cellgro; cat. #10-013-CV) as a 2× stock. A total of 11 serial 3-fold dilutions of test compounds were prepared from the 2× stock in the assay media ranging from 20 nM-0.2 pM final concentrations. At least 4 hours after seeding the cells, compound treatment was initiated by adding 50 μl of compound dilution to the plates. […] The final DMSO concentration was 0.5%. Cells and inhibitors were incubated for 3 days at 37° C./5% CO2. The media was removed from the plates by gentle tapping. The cells were fixed with 100 μl 1:1 acetone:methanol for 1 minute, washed three times with PBS buffer, and then blocked with 150 μl/well 10% Fetal Bovine Serum (FBS) in PBS for 1 hour at room temperature. The cells were then washed three times with PBS buffer and incubated with 100 μl/well anti-hepatitis C core mAb (Affinity BioReagents; cat. # MA1-080, 1 mg/ml stock diluted 1:4,000 in 10% FBS-PBS) for 2 hours at 37° C. Then, the cells were washed three times with PBS and incubated with 100 μl/well HRP-Goat Anti-Mouse antibody (diluted 1:3.500 in 10% FBS-PBS) for 1 hour at 37° C. […] The reaction was stopped with 2N H2SO4 (100 μl/well), and the absorbance was measured at A490 X on a Victor^3 V 1420 multilabel counter (Perkin Elmer). The EC50 values were calculated for test compounds from the resulting best-fit equations determined by Xlfit software (Table 1).

[5] = tested on: HCV replicon gT4a; assay: HCV replicon assay, genotype gT4a; format: cell-based; details: Hepatitis C virus, mean
Protocol: as §1

[6] = tested on: HCV replicon gT5a; assay: HCV replicon assay, genotype gT5a; format: cell-based; details: Hepatitis C virus, mean
Protocol: as §1

[7] = tested on: HCV replicon gT2a; assay: HCV replicon assay, genotype gT2a; format: cell-based; details: Hepatitis C virus, mean
Protocol: Anti-HCV activity (EC50) and cytotoxicity (CC50) of prodrugs of general formula 1. The HCV replicon assay was used to determine the antiviral activity of chemotherapeutic agents of general formula 1 (test compounds). Sovaldi (PSI-7977) was used as the reference drug. The test cell line used in the HCV Replicon Assay was the human hepatoma cell line Huh7 incorporating the HCV replicons synthesized by an outside vendor. 96-well plates were seeded with cells at a density of 7.5×10^3 cells per well in 50 μl of assay media. The compound stock solution was made up freshly in an assay medium (DMEM 1×, Cellgro; cat. #10-013-CV) as a 2× stock. A total of 11 serial 3-fold dilutions of test compounds were prepared from the 2× stock in the assay media ranging from 20 nM-0.2 pM final concentrations. At least 4 hours after seeding the cells, compound treatment was initiated by adding 50 μl of compound dilution to the plates. The final concentrations of compound therefore ranged from 10 nM to 0.1 pM when diluted 1:1 in culture media. The final DMSO concentration was 0.5%. Cells and inhibitors were incubated for 3 days at 37° C./5% CO2. The media was removed from the plates by gentle tapping. The cells were fixed with 100 μl 1:1 acetone:methanol for 1 minute, washed three times with PBS buffer, and then blocked with 150 μl/well 10% Fetal Bovine Serum (FBS) in PBS for 1 hour at room temperature. The cells were then washed three times with PBS buffer and incubated with 100 μl/well anti-hepatitis C core mAb (Affinity BioReagents; cat. # MA1-080, 1 mg/ml stock diluted 1:4,000 in 10% FBS-PBS) for 2 hours at 37° C. Then, the cells were washed three times with PBS and incubated with 100 μl/well HRP-Goat Anti-Mouse antibody (diluted 1:3.500 in 10% FBS-PBS) for 1 hour at 37° C. […] The reaction was stopped with 2N H2SO4 (100 μl/well), and the absorbance was measured at A490 X on a Victor^3 V 1420 multilabel counter (Perkin Elmer). The EC50 values were calculated for test compounds from the resulting best-fit equations determined by Xlfit software (Table 1).

[8] = tested on: HCV replicon gT1a; assay: HCV replicon assay, genotype gT1a; format: cell-based; details: Hepatitis C virus, mean
Protocol: as §1

[9] = tested on: HCV replicon gT1b; assay: HCV replicon assay, genotype gT1b; format: cell-based; details: Hepatitis C virus
Protocol: Anti-HCV activity (EC50) and cytotoxicity (CC50) of prodrugs of general formula 1. The HCV replicon assay was used to determine the antiviral activity of chemotherapeutic agents of general formula 1 (test compounds). Sovaldi (PSI-7977) was used as the reference drug. The test cell line used in the HCV Replicon Assay was the human hepatoma cell line Huh7 incorporating the HCV replicons synthesized by an outside vendor. 96-well plates were seeded with cells at a density of 7.5×10^3 cells per well in 50 μl of assay media. The compound stock solution was made up freshly in an assay medium (DMEM 1×, Cellgro; cat. #10-013-CV) as a 2× stock. A total of 11 serial 3-fold dilutions of test compounds were prepared from the 2× stock in the assay media ranging from 20 nM-0.2 pM final concentrations. At least 4 hours after seeding the cells, compound treatment was initiated by adding 50 μl of compound dilution to the plates. […] The final DMSO concentration was 0.5%. Cells and inhibitors were incubated for 3 days at 37° C./5% CO2. The media was removed from the plates by gentle tapping. The cells were fixed with 100 μl 1:1 acetone:methanol for 1 minute, washed three times with PBS buffer, and then blocked with 150 μl/well 10% Fetal Bovine Serum (FBS) in PBS for 1 hour at room temperature. The cells were then washed three times with PBS buffer and incubated with 100 μl/well anti-hepatitis C core mAb (Affinity BioReagents; cat. # MA1-080, 1 mg/ml stock diluted 1:4,000 in 10% FBS-PBS) for 2 hours at 37° C. Then, the cells were washed three times with PBS and incubated with 100 μl/well HRP-Goat Anti-Mouse antibody (diluted 1:3.500 in 10% FBS-PBS) for 1 hour at 37° C. The cells were then washed three times with PBS and developed with an OPD solution, 100 μl/well (1 OPD tablet+12 ml citrate/phosphate buffer+5 μl 30% H2O2 per plate), for 30 minutes in the dark at room temperature. The reaction was stopped with 2N H2SO4 (100 μl/well), and the absorbance was measured at A490 X on a Victor^3 V 1420 multilabel counter (Perkin Elmer). The EC50 values were calculated for test compounds from the resulting best-fit equations determined by Xlfit software (Table 1).

[10] = tested on: HBV wild-type; details: HBV wild-type; cited from earlier work

In the case of `COc1nc(N)nc2c1ncn2[C@@H]1O[C@H](COP(=O)(N[C@@H](C)C(=O)OC(C)C)Oc2ccccc2)[C@@H](O)[C@@]1(C)F` (stereo partly drawn) [PSI-353661], the EC90 ([1]; replicon assay) is given as 8 nM and the “increase in potency compared to the guanosine analogue” value ([1]; versus β-D-2′-deoxy-2′-R-fluoro-2′-β-C-methylguanosine) is given as greater than 1000 fold.

For `COCCOC(=O)[C@H](C)N[P@](=O)(OC[C@@H]1O[C@H](n2ccc(=O)[nH]c2=O)CS1)Oc1ccccc1` [1.2(96), 2-methoxy-ethyl (S)-2-{(S)-[(2R,5S)-5-(2,4-dioxo-3,4-dihydro-2H-pyrimidin-1-yl)-[1,3]oxathiolan-2-ylmethoxy]-phenoxy-phosphorylamino}-propanoate], the EC50 [2] was 320 ± 80 nM, the “inhibition, %” value [2] was 96% and the CC50 [3] was greater than 30000 nM. The “viability, %” value [3] was 89%.

In the case of `C=CCOC(=O)[C@H](C)N[P@](=O)(OC[C@@H]1O[C@H](n2ccc(=O)[nH]c2=O)CS1)Oc1ccccc1` [1.2(94), allyl (S)-2-{(S)-[(2R,5S)-5-(2,4-dioxo-3,4-dihydro-2H-pyrimidin-1-yl)-[1,3]oxathiolan-2-ylmethoxy]-phenoxy-phosphorylamino}-propanoate], the EC50 [2] is reported as 300 ± 90 nM, the “inhibition, %” value [2] is reported as 99% and the CC50 [3] is reported as greater than 30000 nM. For the same compound, the “viability, %” value [3] was 101%.

`C=CCOC(=O)[C@H](C)NP(=O)(OC[C@H]1O[C@@H](n2ccc(=O)[nH]c2=O)[C@](C)(F)[C@@H]1O)Oc1ccccc1` (stereo partly drawn) [1.2(9), allyl (S)-2-{[(2R,3R,4R,5R)-5-(2,4-dioxo-3,4-dihydro-2H-pyrimidin-1-yl)-4-fluoro-3-hydroxy-4-methyl-tetrahydro-furan-2-ylmethoxy]-phenoxy-phosphorylamino}-propanoate] gave an IC50 [4] of 51 nM, an IC50 [5] of 100 nM and an IC50 [6] of 146 nM. It also gave an IC50 [7] of 23 nM, an IC50 [8] of 54 nM and an IC50 ([9]; GT1B, read-out: IC50 HCV gT1b 10% FBS (mean)) of 29 nM. For the same compound, the IC50 ([9]; gT1b, 40% NHS, mean, read-out: IC50 HCV gT1b 40% NHS (mean)) was 34 nM.

In the case of “2′-fluoro-6′-methylene-carbocyclic adenosine [FMCA]”, the EC50 [10] is given as 550 nM.
